Data published in patent US20260325504A1, “Genetically Engineered Human Pituitary Corticotroph Tumor Organoids Exhibit Divergent Responses to Selective Glucocorticoid Receptor Modulators” (Corcept Therapeutics Incorporated, priority 2022, published 2026).
“Also recorded” adds a separate entry of the source.

Legend:
[1] = system: iPSC^USP48MV organoids; assay: EdU uptake (proliferation) in iPSCUSP48MV organoids; type: cell-based, human; settings: compound alone, 500 nM, 48 h
Procedure: iPSCs were stained for pituitary specific hormones including luteinizing hormone (LH), follicle-stimulating hormone (FSH), growth hormone (GH), prolactin (PRL), ACTH, cytokeratin 8/18 (CAM5.2), pituitary transcription factor PIT-1 and neuroendocrine marker Synaptophysin (Table 5). Cultures were immunostained for proliferation marker EdU (Click-IT EdU Alexa Fluor 555 Imaging Kit, Thermo Fisher Scientific C10338). Antibody dilutions were determined based on manufacturer guidelines and antibody titration (Table 5). Staining was conducted according to previously published protocols. Briefly, organoids and iPSCs grown in 8-well glass bottom chamber slides were fixed using 3.7% formaldehyde, washed with DPBS, permeabilized with 0.5% Triton X-100 (SIGMA X-100, PBS-T, 20 min at room temperature), washed with 0.01% PBS-T, and blocked with 2% donkey serum (Jackson Immuno Research 017-000-121) for 1 hour at room temperature. After blocking, primary antibodies were added and incubated overnight at 4° C. Slides were washed with 0.01% PBS-T and incubated with secondary antibodies (Table 5) with Hoechst (Thermo Fisher Scientific H1399) for 1 hour at room temperature. Organoids were washed and stored in PBS at 4° C. until microscopic analysis. High content confocal microscopy was performed using the Nikon Ti2-E Inverted Microscope (with a Crest X-Light V2 L-FOV Spinning Disk Confocal) at the University of Arizona Cancer Center, or a ZEISS LSM880 34 channel Laser Scanning Confocal Microscope at University of Arizona Marley Imaging Core. Fluorescence intensity was quantified as the percentage of marker-positive cells versus total cells, using Nikon Elements Software (Version 5.21.05). Proliferation for each iPSC line was quantified as the percentage of EdU-positive cells versus total cells.
(§1) Sonic Hedgehog (SHH) was withdrawn from the organoid growth media 16 hours prior to treatment. The experimental treatment groups included: vehicle (Veh), mifepristone (500 nM, Selleckchem S2606), GANT61 (5 μM, Stemcell Technologies 73692), ketoconazole (Keto, 10 μM, Selleckchem S1353), pasireotide (Pas, 100 nM, Target Mol TP2207-SB001), octreotide (Oct, 100 nM, Selleckchem P1017), mifepristone plus GANT61, mifepristone plus Keto, mifepristone plus Pas, relacorilant (500 nM, Corcept Therapeutics CORT125134), relacorilant plus Pas, relacorilant plus Oct, or dexamethasone (Dexa, 100 nM, SIGMA S4902). In the combination treatments, cultures were pretreated with the GANT61, Keto, Pas or Oct for 2 hours prior to treatment with mifepristone or Rela. […] The IC50 values used for each hPITO line for each drug were determined based on dose responses (FIG. 12). […]

[2] = system: iPSC^USP48MV organoids; assay: Spectral flow cytometry, Zombie positive cells (cell death), iPSCUSP48MV organoids; type: cell-based, human; settings: 48 h, FIGS. 8D
Procedure: Sonic Hedgehog (SHH) was withdrawn from the organoid growth media 16 hours prior to treatment. The experimental treatment groups included: vehicle (Veh), mifepristone (500 nM, Selleckchem S2606), GANT61 (5 μM, Stemcell Technologies 73692), ketoconazole (Keto, 10 μM, Selleckchem S1353), pasireotide (Pas, 100 nM, Target Mol TP2207-SB001), octreotide (Oct, 100 nM, Selleckchem P1017), mifepristone plus GANT61, mifepristone plus Keto, mifepristone plus Pas, relacorilant (500 nM, Corcept Therapeutics CORT125134), relacorilant plus Pas, relacorilant plus Oct, or dexamethasone (Dexa, 100 nM, SIGMA S4902). In the combination treatments, cultures were pretreated with the GANT61, Keto, Pas or Oct for 2 hours prior to treatment with mifepristone or Rela. PitNET tissue derived organoids hPITO36, hPITO37, hPITO38, hPITO39, and hPITO40 were treated with the following experimental conditions: Vehicle (1), pasireotide (2), relacorilant (3), relacorilant & pasireotide (4), mifepristone (5), mifepristone & pasireotide (6). The IC50 values used for each hPITO line for each drug were determined based on dose responses (FIG. 12). […]
The multicolor flow cytometry antibody panel was designed using the Cytek® Full Spectrum Viewer online tool to calculate the similarity index. […] Data was acquired using the Cytek® Aurora, analyzed using Cytobank Premium software (Beckman Coulter).

[3] = system: SSTR2; assay: Spectral flow cytometry, SSTR2 positive cells, iPSCUSP48MV organoids; type: cell-based, human; settings: 48 h, FIGS. 8A, E
Procedure: Sonic Hedgehog (SHH) was withdrawn from the organoid growth media 16 hours prior to treatment. The experimental treatment groups included: vehicle (Veh), mifepristone (500 nM, Selleckchem S2606), GANT61 (5 μM, Stemcell Technologies 73692), ketoconazole (Keto, 10 μM, Selleckchem S1353), pasireotide (Pas, 100 nM, Target Mol TP2207-SB001), octreotide (Oct, 100 nM, Selleckchem P1017), mifepristone plus GANT61, mifepristone plus Keto, mifepristone plus Pas, relacorilant (500 nM, Corcept Therapeutics CORT125134), relacorilant plus Pas, relacorilant plus Oct, or dexamethasone (Dexa, 100 nM, SIGMA S4902). In the combination treatments, cultures were pretreated with the GANT61, Keto, Pas or Oct for 2 hours prior to treatment with mifepristone or Rela. PitNET tissue derived organoids hPITO36, hPITO37, hPITO38, hPITO39, and hPITO40 were treated with the following experimental conditions: Vehicle (1), pasireotide (2), relacorilant (3), relacorilant & pasireotide (4), mifepristone (5), mifepristone & pasireotide (6). The IC50 values used for each hPITO line for each drug were determined based on dose responses (FIG. 12). All organoid cultures were treated for 48 hours prior to analysis.
The multicolor flow cytometry antibody panel was designed using the Cytek® Full Spectrum Viewer online tool to calculate the similarity index. Organoids were harvested in cold Serum-Free Defined Medium media and incubated with Zombie (BioLegend 423107, 1:100) for 15 minutes in the dark at room temperature, followed by incubation with fluorochrome-conjugated/unconjugated primary surface or cytoplasmic antibodies (Table 6) at 4° C. for 30 minutes. Cells were then washed with Cell Staining Buffer (BioLegend 420-201) and incubated at 4° C. for 30 minutes with secondary antibodies (Table 6). Cells were fixed using Cytofix/Cytoperm™ Fixation/Permeabilization Solution (BD Biosciences 554714) and washed with Fixation/Permeabilization wash buffer according to the recommended protocol. […] Data was acquired using the Cytek® Aurora, analyzed using Cytobank Premium software (Beckman Coulter).

[4] = system: PitNET organoids; assay: ACTH secretion from PitNET (summary); type: cell-based, human
Procedure: as §1
Organoid conditioned media was collected and ACTH secretion using an ELISA according to the manufacturer's protocol (Novus Biologicals Human ACTH ELISA Kit NBP2-66401). The optical density was measured at a wavelength of 450 nm, and ACTH concentration (pg/mL) was interpolated using a standard curve with a 4-parameter logistic regression analysis using GraphPad Prism (v9.3.1).

[5] = system: patients with Cushing's syndrome; settings: cited from earlier work; for tumor regression / tumor growth: CD patients, pituitary macroadenomas/corticotroph tumors; for ACTH levels in patients / cortisol levels in patients: patients with Cushing's syndrome/CD
[6] = system: progesterone receptor; settings: cited from earlier work
[7] = system: iPSC^ctrl organoids; assay: Nuclear morphometric analysis (nuclear irregularity index), iPSCctrl organoids; type: cell-based, human; settings: 500 nM, 48 h
Procedure: Nuclear Morphometric Analysis (NMA) using treated organoids was performed based on a published protocol that measures cell viability based on the changes in nuclear morphology of the cells using nuclear stain Hoechst or DAPI [31]. Images of organoid nuclei were analyzed using the ImageJ Nuclear Irregularity Index (NII) plugin for key parameters that included cell area, radius ratio, area box, aspect, and roundness. Using the published spreadsheet template, the NII of each cell was calculated with the following formula: NII=Aspect−Area Box+Radius Ratio+Roundness. The area vs NII of vehicle-treated cells were plotted as a scatter plot using the template and considered as the normal cell nuclei. […] The percentage of cells in each NII classification category were calculated and plotted as a histogram using GraphPad Prism.
Sonic Hedgehog (SHH) was withdrawn from the organoid growth media 16 hours prior to treatment. […] The IC50 values used for each hPITO line for each drug were determined based on dose responses (FIG. 12). […]

Compound	proliferation (EdU uptake) [1]	cell death (Zombie positive cells) [2]	percentage of SSTR2 positive cells [3]	ACTH secretion from PitNET organoids [4]	tumor regression / tumor growth [5]	tumor regression ([5]; macroadenomas, treated for three months, imaging of the pituitary gland)	ACTH levels in patients [5]	cortisol levels in patients [5]	effects of excess cortisol on hypertension and insulin resistance ([5]; phase 2 study, patients with Cushing's syndrome)	binding to the progesterone receptor [6]	apoptotic cells by nuclear irregularity index (NII) [7]	magnitude of SSTR2 induction, mifepristone vs relacorilant [3]	hyperglycemia secondary to hypercortisolism ([5]; patients with CD)	side effects ([5]; patients)
Cn1cc(S(=O)(=O)N2CCC3=Cc4c(cnn4-c4ccc(F)cc4)C[C@]3(C(=O)c3cc(C(F)(F)F)ccn3)C2)cn1 [relacorilant, (R)-(1-(4-fluorophenyl)-6-((1-methyl-1H-pyrazol-4-yl)sulfonyl)-4,4a,5,6,7,8-hexahydro-1H-pyrazolo[3,4-g]isoquinolin-4a-yl) (4-(trifluoromethyl)pyridin-2-yl) methanone]	did not induce organoid proliferation	significant increase in Zombie positive cells	significant increase	without significant stimulation of ACTH secretion; also recorded: without an increase in ACTH secretion	induce tumor regression in some CD patients	tumor regression in two patients	did not significantly raise ACTH or cortisol levels	did not significantly raise ACTH or cortisol levels	reversed the effects of excess cortisol on hypertension and insulin resistance	no detectable binding	not observed	–	–	–
CC#C[C@]1(O)CC[C@H]2[C@@H]3CCC4=CC(=O)CCC4=C3[C@@H](c3ccc(N(C)C)cc3)C[C@@]21C [mifepristone, 11β-(4-dimethylaminophenyl)-17ß-hydroxy-17α-(1-propynyl)-estra-4,9-dien-3-one]	significant increase in cell proliferation	not observed	significant increase	preferentially induced the expression of SSTR2, ACTH secretion and PitNET organoid proliferation; also recorded: significantly increased ACTH secretion from PitNET both in vivo and in vitro	not been observed; also recorded: without tumor growth	–	increases ACTH; also recorded: raises ACTH (and thus cortisol) levels	concomitant increase in cortisol secretion; also recorded: raises ACTH (and thus cortisol) levels	–	binding to the progesterone receptor	not observed; also recorded: induces apoptosis in neither the tumor organoid iPSC^USP48MV nor the control organoid iPSC^ctrl	significantly greater than that of relacorilant	significantly improves hyperglycemia	significant side effects in some patients; also recorded: endometrial thickening and vaginal bleeding
